Results: patent US4350700A, “Pharmaceutical composition containing 1,3,5-substituted biuret compound” (Taiho Pharmaceutical Company, Limited, priority 1979, dated 1982)
Read-outs that look alike come from different tables or passages of the source.

Assays:
[1] = tested on: carrageenin-induced inflammation of the hindpaw of the rat; experiment: Anti-inflammatory activity, acute carrageenin-induced inflammatory test; type: in vivo, rats (Wistar strain, male); details: Rattus norvegicus, read-out: Anti-inflammatory activity, inflammation inhibitory ratio; for inhibition in vivo at 200 mg/kg: 200 mg/kg oral
Protocol: (§1) Next, several tests for determining the pharmacological properties, in that acute toxicity, anti-pyretic activity, analgesic activity and anti-inflammatory activity of the present 1,3,5-substituted biuret compounds of the formula (1) were conducted and the test results are shown in Table (2). In the tests, each compounds to be tested was used as a suspension in 0.25% carboxymethylcellulose solution. Methods for testing are explained as follows:
4. Anti-inflammatory Activity
According to the method of acute carrageenin-induced inflammatory test [Folia Pharmacologia Japonica, Vol. 56, pp. 575 (1960)], the Wistar strain of male rats (body weight, 150-180 g) were used as test animals. The rats were fasted overnight, 100 mg/kg body weight of the test compound was administered orally, then 1 hour after the administration, 0.1 ml of 1% carrageenin solution, as the inflammation inducing agent, was injected subcutaneously to the hindpaw of the rat and the volume of the hindpaw was measured at time sequences. Anti-inflammatory activity of the test compound was calculated as inflammation inhibitory ratio (%) at 3 hours after the injection of inflammation inducing agent.

[2] = tested on: pain reaction of the mouse caused by a clamp; experiment: Analgesic activity, Haffner method; type: in vivo, mice (ddy strain, male); details: for ED50: Mus musculus, oral, mice (Δ values; range in parentheses), read-out: Analgesic activity, Haffner method, 50% effective dose ED50; for Analgesic activity, Haffner method, inhibitory ratio: mice
Protocol: as §1
According to the modified method reported by Fujimura et al., [Bulletin of the Institute for Chemical Research, Kyoto University, No. 25, pp. 36 (1951)], the ddy strain of male mice (body weight, 20-25 g) were used as test animals. The mice were fasted overnight, 100 mg/kg body weight of the test compound was administered orally, then 45 minutes after the administration, the threshhold amount (1.5-2.5 mg/kg body weight) of morphine hydrochloride was injected subcutaneously. Then 1-hour pain reaction of the mouse caused by a clamp was observed. Analgesic activity of the test compound was calculated as the inhibitory ratio (%). In Table 2, the values in parentheses show the data obtained from the test by using the dosage other than 100 mg/kg body weight. Further, the values indicated with Δ marks show 50% effective dose, ED50 (mg/kg body weight).

[3] = Acute toxicity (oral, general symptom and death observed for 7 days); type: in vivo, mice (ddy strain, male); details: mouse, in vivo; oral, mice, 7 days observation (Δ values); read-out: Acute toxicity, 50% lethal dose LD50
Protocol: as §1
(§2) The ddy strain of male mice (body weight, 20-25 g) were used as test animals. The mice were fasted overnight and the compound to be tested was administered orally. […] The lethal dose (mg/kg, body weight) of the test compound was determined in connection with the death number of mice/the number of mice tested. In Table 2, the values indicated with Δ marks are 50% lethal dose, LD50 (mg/kg, body weight).

[4] = tested on: acetic acid-induced stretching symptom of mouse; experiment: Analgesic activity, acetic acid-induced stretching method; type: in vivo, mice (ddy strain, male); details: for ED50: oral, mice (Δ values; range in parentheses), read-out: Analgesic activity, acetic acid-induced stretching method, 50% effective dose ED50
Protocol: as §1
(1) Acetic acid-induced stretching method
According to the method reported by Koster et.al., [Fed. Proc., Vol. 18, pp. 412 (1959)], the ddy strain of male mice (body weight, 20-25 g) were used as test animals. The mice were fasted overnight, 100 mg/kg body weight of the test compound was administered orally, then 1 hour after the administration, 0.2 ml of 0.7% acetic acid solution was injected intraperitoneally. The acetic acid-induced stretching symptom of mouse was observed. Analgesic activity of the test compound was calculated as the inhibitory ratio (%). In Table 2, the values in parentheses show the data obtained from the test by using the dosage other than 100 mg/kg body weight. Further, the values indicated with Δ marks show 50% effective dose, ED50 (mg/kg body weight).

[5] = tested on: ddy strain of male mice; experiment: Acute toxicity (oral, general symptom and death observed for 7 days); type: in vivo; details: 7 days
Protocol: as §1, §2

[6] = tested on: 10% dry-yeast suspension-induced fever of rats; experiment: Anti-pyretic activity (dry-yeast induced fever, febril index); type: in vivo, rats (Wistar strain, male); details: oral, febril index up to 4 hours after administration, dose not stated
Protocol: as §1
According to the method reported by Tanabe [Folia Pharmacologia Japonica, Vol. 73, pp. 803 (1977)], the Wistar strain of male rats (150-180 g body weight) were used as test animals. The rats were fasted overnight, and 1 ml/100 g (body weight) of 10% dry-yeast suspension were subcutaneously injected on the back of the rats. Five hours afte the injection, the test compound was administered orally, then the body temperature of the rat was measured time sequences. Anti-pyretic activity of the test compound was determined as the FI (febril index) by integrating pyrogenetic curve up to 4 hours after the administration of the test compound with time, and indicated as inhibitory ratio (%) shown by the following formula, [formula]

[7] = 100 mg/kg oral, rats, 3 hours after carrageenin
[8] = po, read-out: Analgesic activity, acetic acid-induced stretching method, inhibitory ratio
[9] = rats, 3 hours after carrageenin
[10] = 100 mg/kg oral, mice, read-out: Analgesic activity, acetic acid-induced stretching method, inhibitory ratio

CNC(=O)N(C)C(=O)Nc1ccccn1 [Compound No. 14, 1,3-dimethyl-5-(2-pyridyl)biuret]
inhibition in vivo at 100 mg/kg [1, 7]: 54%
ED50 [2]: 145 mg/kg
LD50 at 168 h [3]: 656 mg/kg
inhibition in vivo at 100 mg/kg [4, 8]: 62.5%

CCNC(=O)NC(=O)Nc1ccc(OC)cc1 [compound 28, 1-Ethyl-5-(4-methoxyphenyl)biuret]
inhibition in vivo at 200 mg/kg [1, 9]: 75%
Analgesic activity, Haffner method, inhibitory ratio ([2]; 200 mg/kg oral): 37.5%
LD50 at 168 h [3]: 1600 mg/kg
inhibition in vivo at 200 mg/kg [4, 8]: 37.5%

CN(C(=O)Nc1ccccc1)C(=O)NC(C)(C)C [compound 51, 1-tert-Butyl-3-methyl-5-phenylbiuret]
inhibition in vivo at 100 mg/kg [1, 7]: 34%
Analgesic activity, Haffner method, inhibitory ratio ([2]; 100 mg/kg oral): 37.5%
Acute toxicity, death number of mice/number of mice tested ([5]; 2000 mg/kg oral): 0/4
Anti-pyretic activity, inhibitory ratio [6]: 83%
inhibition in vivo at 100 mg/kg [4, 8]: 50%

CNC(=O)N(C)C(=O)Nc1ccc2c(c1)OCO2 [compound 9, 1,3-Dimethyl-5-(3,4-methylenedioxyphenyl)biuret]
inhibition in vivo at 100 mg/kg [1, 7]: 46%
Analgesic activity, Haffner method, inhibitory ratio ([2]; 100 mg/kg oral): 25%
LD50 at 168 h [3]: 1080 mg/kg
Anti-pyretic activity, inhibitory ratio [6]: 38%
inhibition in vivo at 100 mg/kg [4, 8]: 87.5%

CCNC(=O)N(C)C(=O)Nc1cccs1 [compound 40]
inhibition in vivo at 100 mg/kg ([1]; po, 3 h): 24%
Analgesic activity, Haffner method, inhibitory ratio ([2]; 100 mg/kg oral): 37.5%
LD50 at 168 h [3]: 559 mg/kg
Anti-pyretic activity, inhibitory ratio [6]: 42%
inhibition in vivo at 100 mg/kg [4, 8]: 75%

CCNC(=O)N(C)C(=O)Nc1ccccc1 [Compound No. 31, 1-ethyl-3-methyl-5-phenylbiuret]
inhibition in vivo at 100 mg/kg [1, 7]: 63%
ED50 [2]: 105 mg/kg
LD50 at 168 h [3]: 1590 mg/kg
Anti-pyretic activity, inhibitory ratio [6]: 149%
ED50 [4]: 70 mg/kg

CNC(=O)N(C)C(=O)Nc1cccnc1 [Compound No. 15, 1,3-Dimethyl-5-(3-pyridyl)-biuret]
inhibition in vivo at 100 mg/kg [1, 7]: 37%
Analgesic activity, Haffner method, inhibitory ratio ([2]; 100 mg/kg oral): 62.5%
LD50 at 168 h [3]: 1100 mg/kg
Anti-pyretic activity, inhibitory ratio [6]: 94%
ED50 [4]: 44 mg/kg

CC(C)CNC(=O)N(C)C(=O)Nc1ccccc1 [Compound No. 49, 1-Isobutyl-3-methyl-5-phenylbiuret]
inhibition in vivo at 100 mg/kg [1, 7]: 57%
ED50 [2]: 50 mg/kg
Acute toxicity, death number of mice/number of mice tested ([5]; 2000 mg/kg oral): 0/4
Anti-pyretic activity, inhibitory ratio [6]: 55%
inhibition in vivo at 40 mg/kg [4, 8]: 50%

CNC(=O)N(C)C(=O)Nc1ccncc1 [compound 16]
inhibition in vivo at 100 mg/kg [1, 7]: 34%
Analgesic activity, Haffner method, inhibitory ratio ([2]; 100 mg/kg oral): 25%
LD50 at 168 h [3]: 1100 mg/kg
inhibition in vivo at 100 mg/kg [4, 8]: 62.5%

CNC(=O)N(C)C(=O)Nc1ncccn1 [compound 19, 1,3-Dimethyl-5-(2-pyrimidinyl)biuret]
Analgesic activity, Haffner method, inhibitory ratio ([2]; 100 mg/kg oral): 37.5%
LD50 at 168 h [3]: 1400 mg/kg
Anti-pyretic activity, inhibitory ratio [6]: 6%
inhibition in vivo at 100 mg/kg [4, 8]: 50%

CNC(=O)N(C)C(=O)Nc1ccccc1F [Compound No. 4]
inhibition in vivo at 100 mg/kg [1, 7]: 41%
Analgesic activity, Haffner method, inhibitory ratio ([2]; 100 mg/kg oral): 25%
Acute toxicity, death number of mice/number of mice tested ([5]; 2000 mg/kg oral): 0/4
Anti-pyretic activity, inhibitory ratio [6]: 79%
inhibition in vivo at 100 mg/kg [4, 8]: 37.5%

CC(C)NC(=O)N(C)C(=O)Nc1ccccc1 [Compound No. 43, 1-Isopropyl-3-methyl-5-phenylbiuret]
inhibition in vivo at 100 mg/kg ([1]; po, 3 h): 51%
Analgesic activity, Haffner method, inhibitory ratio ([2]; 100 mg/kg oral): 25%
Acute toxicity, death number of mice/number of mice tested ([5]; 2000 mg/kg oral): 0/4
Anti-pyretic activity, inhibitory ratio [6]: 38%
inhibition in vivo at 100 mg/kg [4, 8]: 50%

CNC(=O)N(C)C(=O)Nc1ccccc1Cl [Compound No. 5, 1,3-Dimethyl-5-(2-chlorophenyl)biuret]
inhibition in vivo at 200 mg/kg [1, 9]: 53%
Analgesic activity, Haffner method, inhibitory ratio ([2]; 200 mg/kg oral): 37.5%
Acute toxicity, death number of mice/number of mice tested ([5]; 2000 mg/kg oral): 0/4
Anti-pyretic activity, inhibitory ratio [6]: 28%
inhibition in vivo at 200 mg/kg [4, 8]: 37.5%

C=CCNC(=O)N(C)C(=O)Nc1ccccc1 [Compound No. 45]
inhibition in vivo at 100 mg/kg ([1]; po, 3 h): 59%
Analgesic activity, Haffner method, inhibitory ratio ([2]; 100 mg/kg oral): 12.5%
Acute toxicity, death number of mice/number of mice tested ([5]; 1000 mg/kg oral): 2/4
Acute toxicity, death number of mice/number of mice tested ([5]; 2000 mg/kg oral): 4/4
Anti-pyretic activity, inhibitory ratio [6]: 125%
inhibition in vivo at 100 mg/kg [4, 8]: 50%

CNC(=O)N(C)C(=O)Nc1nccs1 [compound 20]
inhibition in vivo at 100 mg/kg [1, 7]: 46%
Analgesic activity, Haffner method, inhibitory ratio ([2]; 100 mg/kg oral): 25%
Acute toxicity, death number of mice/number of mice tested ([5]; 1000 mg/kg oral): 3/4
Anti-pyretic activity, inhibitory ratio [6]: 112%
inhibition in vivo at 100 mg/kg [4, 10]: 25%

CNC(=O)N(C)C(=O)Nc1cc(C)ccn1 [compound 17]
inhibition in vivo at 100 mg/kg ([1]; po, 3 h): 33%
Analgesic activity, Haffner method, inhibitory ratio ([2]; 100 mg/kg oral): 25%
Acute toxicity, death number of mice/number of mice tested ([5]; 1000 mg/kg oral): 0/4
Acute toxicity, death number of mice/number of mice tested ([5]; 2000 mg/kg oral): 3/4
Anti-pyretic activity, inhibitory ratio [6]: 55%
inhibition in vivo at 100 mg/kg [4, 10]: 25%

CCC(C)NC(=O)N(C)C(=O)Nc1ccccc1 (centres unmarked) [compound 50, 1-(1-Methylpropyl)-3-methyl-5-phenylbiuret]
inhibition in vivo at 100 mg/kg ([1]; po, 3 h): 47%
Analgesic activity, Haffner method, inhibitory ratio ([2]; 100 mg/kg oral): 25%
Acute toxicity, death number of mice/number of mice tested ([5]; 2000 mg/kg oral): 0/4
Anti-pyretic activity, inhibitory ratio [6]: 27%
inhibition in vivo at 100 mg/kg [4, 8]: 62.5%

CCNC(=O)N(C)C(=O)Nc1cc(OC)c(OC)c(OC)c1 [Compound No. 37, 1-Ethyl-3-methyl-5-(3,4,5-trimethoxyphenyl)biuret]
ED50 [2]: 46 mg/kg
LD50 at 168 h [3]: 749 mg/kg
Anti-pyretic activity, inhibitory ratio [6]: 97%
inhibition in vivo at 100 mg/kg [4, 8]: 75%

CCNC(=O)N(C)C(=O)Nc1ccc(OC)cc1 [compound 35, 1-Ethyl-3-methyl-5-(4-methoxyphenyl)biuret]
inhibition in vivo at 100 mg/kg [1, 7]: 19%
Analgesic activity, Haffner method, inhibitory ratio ([2]; 100 mg/kg oral): 62.5%
Acute toxicity, death number of mice/number of mice tested ([5]; 1000 mg/kg oral): 0/4
Acute toxicity, death number of mice/number of mice tested ([5]; 2000 mg/kg oral): 4/4
Anti-pyretic activity, inhibitory ratio [6]: 112%
inhibition in vivo at 100 mg/kg [4, 10]: 87.5%

CCCNC(=O)N(C)C(=O)Nc1ccccc1 [Compound No. 41, 1-n-Propyl-3-methyl-5-phenylbiuret]
inhibition in vivo at 100 mg/kg [1, 7]: 67%
Analgesic activity, Haffner method, inhibitory ratio ([2]; 100 mg/kg oral): 37.5%
Acute toxicity, death number of mice/number of mice tested ([5]; 2000 mg/kg oral): 0/4
Anti-pyretic activity, inhibitory ratio [6]: 65%
inhibition in vivo at 100 mg/kg [4, 8]: 62.5%

CCCCNC(=O)N(C)C(=O)Nc1ccccc1 [Compound No. 47]
inhibition in vivo at 100 mg/kg [1, 7]: 27%
Analgesic activity, Haffner method, inhibitory ratio ([2]; 100 mg/kg oral): 62.5%
Acute toxicity, death number of mice/number of mice tested ([5]; 2000 mg/kg oral): 0/4
Anti-pyretic activity, inhibitory ratio [6]: 19%
inhibition in vivo at 100 mg/kg [4, 8]: 75%

C=CCNC(=O)NC(=O)Nc1ccccc1 [compound 44]
inhibition in vivo at 100 mg/kg ([1]; po, 3 h): 33%
Analgesic activity, Haffner method, inhibitory ratio ([2]; 100 mg/kg oral): 50%
LD50 at 168 h [3]: 1400 mg/kg
inhibition in vivo at 100 mg/kg [4, 8]: 62.5%
